Measured values as given in patent US9353082B2, “Pharmaceutical compounds” (BIAL—PORTELA & CA, S.A., priority 2008, dated 2016).

Assays:
FAAH [1] = biological target: T1, FAAH (Rattus norvegicus, UniProt P97612); assay: In vitro FAAH activity in rat brain membranes, 3H-AEA substrate, % of control; format: biochemical, Wistar rats; conditions: low value = strong inhibitor; for In Vitro FAAH activity, 100 nM: 100 nM test compound; for In Vitro FAAH activity, 10 uM: 10 uM test compound; for In Vitro 100 nM (FAAH activity, % of control): rat brain membranes, compound at 100 nM
T1 construct: Frozen brains (without cerebellum) from Wistar rats were used; from tissue; host or cells: Wistar rat brain (without cerebellum), washed membrane pellets
T1 sequence (P97612 1-579): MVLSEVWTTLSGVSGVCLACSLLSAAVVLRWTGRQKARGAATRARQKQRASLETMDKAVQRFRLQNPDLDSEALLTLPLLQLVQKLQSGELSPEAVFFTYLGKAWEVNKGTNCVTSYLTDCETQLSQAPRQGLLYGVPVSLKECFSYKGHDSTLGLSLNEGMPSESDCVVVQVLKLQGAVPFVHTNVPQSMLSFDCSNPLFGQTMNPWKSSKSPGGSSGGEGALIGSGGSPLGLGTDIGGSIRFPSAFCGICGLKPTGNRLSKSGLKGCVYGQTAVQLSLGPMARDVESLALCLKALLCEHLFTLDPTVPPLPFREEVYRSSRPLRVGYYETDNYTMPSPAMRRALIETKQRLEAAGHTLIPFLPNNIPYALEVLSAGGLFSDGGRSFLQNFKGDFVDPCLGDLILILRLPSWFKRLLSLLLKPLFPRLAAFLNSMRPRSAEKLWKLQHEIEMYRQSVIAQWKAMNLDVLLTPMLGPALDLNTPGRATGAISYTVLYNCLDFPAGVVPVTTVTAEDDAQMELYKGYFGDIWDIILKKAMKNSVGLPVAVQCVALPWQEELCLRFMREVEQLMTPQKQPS
In short: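 FAAH activity measured as 3H-ethanolamine released from 2 μM [3H]AEA over 10 min by rat brain membrane preparation, after 15 min 37 °C preincubation with test compound at 10 or 0.1 μM. Charcoal-separated supernatant scintillation-counted; values expressed as % of control minus no-protein blank.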

FAAH [2] = biological target: T2, FAAH (Mus musculus, UniProt O08914); assay: In vivo FAAH inhibition after oral dosing, remaining activity in brain homogenate (BRh, central nervous tissue); set-up: species or system NMRI mice; conditions: brain homogenate, 3 mg/kg; for In Vivo BRh 3 mg·kg 8 h (remaining FAAH activity, % of control): 8 h after dosing, low value = strong inhibitor
T2 construct: A fragment of liver, left lung lobe and brain without cerebellum were removed; from tissue; host or cells: male NMRI mice; brain (without cerebellum) and liver homogenates
T2 sequence (O08914 1-579): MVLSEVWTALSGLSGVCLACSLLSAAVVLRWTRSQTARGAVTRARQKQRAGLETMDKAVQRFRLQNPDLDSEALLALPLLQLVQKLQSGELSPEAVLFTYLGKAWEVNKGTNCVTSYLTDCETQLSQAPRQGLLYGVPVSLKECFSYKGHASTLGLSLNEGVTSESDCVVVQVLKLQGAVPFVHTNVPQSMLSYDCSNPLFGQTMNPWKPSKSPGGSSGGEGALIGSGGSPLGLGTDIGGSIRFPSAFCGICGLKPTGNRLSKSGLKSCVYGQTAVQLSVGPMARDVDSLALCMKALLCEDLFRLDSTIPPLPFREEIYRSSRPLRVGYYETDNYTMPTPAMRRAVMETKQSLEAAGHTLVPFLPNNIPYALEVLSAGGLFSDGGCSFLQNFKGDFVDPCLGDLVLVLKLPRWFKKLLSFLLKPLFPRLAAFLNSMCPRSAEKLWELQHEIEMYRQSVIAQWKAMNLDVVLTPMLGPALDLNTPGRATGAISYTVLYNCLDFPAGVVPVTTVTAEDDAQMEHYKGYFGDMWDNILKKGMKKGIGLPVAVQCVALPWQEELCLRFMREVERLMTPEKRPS
In short: (§1)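 Remaining FAAH activity is given as % of vehicle-treated controls after blank subtraction, measured by radiolabelled AEA hydrolysis (2 μM AEA, 5 nM 3H-AEA, 37 °C) in brain (10 min) or liver (7 min) homogenates. These came from fasted male NMRI mice dosed orally at 30 or 3 mg/kg.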

FAAH [3] = biological target: T2, FAAH; assay: In vivo FAAH inhibition after oral dosing, remaining activity in liver homogenate (LVh, peripheral tissue); set-up: species or system NMRI mice; conditions: liver homogenate, 3 mg/kg; for In Vivo LVh 3 mg·kg 8 h (remaining FAAH activity, % of control): 8 h after dosing, low value = strong inhibitor
In short: as §1

| Structure (SMILES) | In Vitro FAAH activity, 100 nM (FAAH [1]) | In Vivo BRh 3 mg/kg 8 h, remaining FAAH activity (FAAH [2]) | In Vivo LVh 3 mg/kg 8 h, remaining FAAH activity (FAAH [3]) | In Vitro FAAH activity, 10 uM (FAAH [1]) | In Vitro 100 nM (FAAH activity, % of control) (FAAH [1]) | In Vivo BRh 3 mg·kg 8 h (remaining FAAH activity, % of control) (FAAH [2]) | In Vivo LVh 3 mg·kg 8 h (remaining FAAH activity, % of control) (FAAH [3]) |
| --- | --- | --- | --- | --- | --- | --- | --- |
| CC(C)N(Cc1ccccc1)C(=O)n1cnc(-c2ccccc2)c1 [Compound 250, N-benzyl-N-isopropyl-4-phenyl-1H-imidazole-1-carboxamide] | 90.5 % of control | 102.1 % of control | 52.6 % of control | – | – | – | – |
| Cc1c(-c2ccccc2)ncn1C(=O)N(C)C1CCCCC1 [Compound 254, N-cyclohexyl-N,5-dimethyl-4-phenyl-1H-imidazole-1-carboxamide] | 81 % of control | 98.3 % of control | 89.9 % of control | 109 % of control | – | – | – |
| CN(C(=O)n1cnc(-c2cccc(-c3cccc(Cl)c3)c2)c1)C1CCCCC1 [Compound 257, 4-(3′-chlorobiphenyl-3-yl)-N-cyclohexyl-N-methyl-1H-imidazole-1-carboxamide] | 65.6 % of control | 60.1 % of control | 12.2 % of control | – | – | – | – |
| CC1(C)COCN1C(=O)n1cnc(-c2ccc(O)cc2)c1 [Compound 260, (4,4-dimethyloxazolidin-3-yl)(4-(4-hydroxyphenyl)-1H-imidazol-1-yl)methanone] | 95.3 % of control | 8.1 % of control | 7.8 % of control | 37.3 % of control | – | – | – |
| CN(C(=O)n1cnc(-c2ccc(O)cc2)c1)C1CCCCC1 [Compound 261, N-cyclohexyl-4-(4-hydroxyphenyl)-N-methyl-1H-imidazole-1-carboxamide] | 54.1 % of control | 1.2 % of control | 1.2 % of control | 0 % of control | – | – | – |
| Cc1c(-c2ccccc2)ncn1C(=O)N1COCC1(C)C [Compound 263, (4,4-dimethyloxazolidin-3-yl)(5-methyl-4-phenyl-1H-imidazol-1-yl)methanone] | 92.1 % of control | 98.1 % of control | 98.8 % of control | – | – | – | – |
| Cc1c(-c2ccccc2)ncn1C(=O)N(C)Cc1ccccc1 [Compound 264, N-benzyl-N,5-dimethyl-4-phenyl-1H-imidazole-1-carboxamide] | 88 % of control | 115 % of control | 76.6 % of control | – | – | – | – |
| CCC1CN(C(=O)n2cnc(-c3ccc(Cl)cc3)c2)C(C)(C)O1 (stereo not drawn) [Compound 267, (4-(4-chlorophenyl)-1H-imidazol-1-yl)(5-ethyl-2,2-dimethyloxazolidin-3-yl)methanone] | 84.1 % of control | 79.4 % of control | 83.7 % of control | – | – | – | – |
| CN(C(=O)n1cnc(-c2ccc(F)c(F)c2)c1)C1CCCCC1 [Compound 272, N-cyclohexyl-4-(3,4-difluorophenyl)-N-methyl-1H-imidazole-1-carboxamide] | 63.6 % of control | 19 % of control | 7.1 % of control | – | – | – | – |
| CN(C(=O)n1cnc(-c2ccc(F)cc2)c1)C1CCCCC1 [Compound 273, N-cyclohexyl-4-(4-fluorophenyl)-N-methyl-1H-imidazole-1-carboxamide] | – | – | – | – | 65.1 % of control | 3.4 % of control | 2.6 % of control |
| CN(C(=O)n1cnc(-c2ccccc2)c1)C1CCN(Cc2ccccc2)CC1 [Compound 282, N-(1-benzylpiperidin-4-yl)-N-methyl-4-phenyl-1H-imidazole-1-carboxamide] | – | – | – | – | 40.9 % of control | 0.5 % of control | 1.6 % of control |

The next lines start with the values.

| In Vitro FAAH activity, 100 nM (FAAH [1]) | In Vivo BRh 3 mg/kg 8 h, remaining FAAH activity (FAAH [2]) | In Vivo LVh 3 mg/kg 8 h, remaining FAAH activity (FAAH [3]) | In Vitro FAAH activity, 10 uM (FAAH [1]) | In Vitro 100 nM (FAAH activity, % of control) (FAAH [1]) | In Vivo BRh 3 mg·kg 8 h (remaining FAAH activity, % of control) (FAAH [2]) | In Vivo LVh 3 mg·kg 8 h (remaining FAAH activity, % of control) (FAAH [3]) | Structure (SMILES) |
| --- | --- | --- | --- | --- | --- | --- | --- |
| – | – | – | – | 43.8 % of control | 12.8 % of control | 2.4 % of control | CN(C(=O)n1cnc(-c2cccc([N+](=O)[O-])c2)c1)C1CCCCC1 [Compound 275, N-cyclohexyl-N-methyl-4-(3-nitrophenyl)-1H-imidazole-1-carboxamide] |
| – | – | – | – | 71.5 % of control | 1.4 % of control | 2 % of control | CN(C(=O)n1cnc(-c2ccc(OC(F)F)cc2)c1)C1CCCCC1 [Compound 276, N-cyclohexyl-4-(4-(difluoromethoxy)phenyl)-N-methyl-1H-imidazole-1-carboxamide] |
| – | – | – | – | 103.5 % of control | 1.6 % of control | 1.8 % of control | CN(C(=O)n1cnc(-c2ccccc2)c1)C1CCOCC1 [Compound 278, N-methyl-4-phenyl-N-(tetrahydro-2H-pyran-4-yl)-1H-imidazole-1-carboxamide] |
| – | – | – | – | 87.3 % of control | 91.6 % of control | 94.1 % of control | Cc1nc(-c2ccccc2)cn1C(=O)N(C)C1CCCCC1 [Compound 279, N-cyclohexyl-N,2-dimethyl-4-phenyl-1H-imidazole-1-carboxamide] |
| – | – | – | – | 146.2 % of control | 130.7 % of control | 145.6 % of control | Cc1nc(-c2ccccc2)nn1C(=O)N(C)C1CCCCC1 [Compound 284, N-cyclohexyl-N,5-dimethyl-3-phenyl-1H-1,2,4-triazole-1-carboxamide] |
| – | – | – | – | 112.8 % of control | 104 % of control | 93 % of control | Cc1nc(-c2ccccc2)nn1C(=O)N1COCC1(C)C [Compound 286, (4,4-dimethyloxazolidin-3-yl)(5-methyl-3-phenyl-1H-1,2,4-triazol-1-yl)methanone] |
| – | – | – | – | 127.3 % of control | 105.8 % of control | 85.7 % of control | CN(C(=O)n1cnc(-c2cccc(-c3cccc(C(N)=O)c3)c2)c1)C12CC3CC(CC(C3)C1)C2 [Compound 287, 4-(3′-carbamoylbiphenyl-3-yl)-N-methyl-N-tricyclo[3.3.1.13,7]dec-1-yl-1H-imidazole-1-carboxamide-propan-2-ol (1:1)] |
| – | – | – | – | 109.8 % of control | 113.2 % of control | 96.1 % of control | CN(C(=O)n1cnc(-c2cccnc2)c1)C12CC3CC(CC(C3)C1)C2 [Compound 289, N-methyl-4-pyridin-3-yl-N-tricyclo[3.3.1.13,7]dec-1-yl-1H-imidazole-1-carboxamide] |
